The results in this text go back to US6949542B2, “Dihydro-benzo[b][1,4]diazepin-2-one derivatives” (Hoffman-La Roche Inc., priority 2002, dated 2005).

The structures appear in SMILES notation.

In turn, `CC(C)N(C)c1cc2c(cc1Cl)NC(=O)CC(c1cccc(-c3ccnc(CO)c3)c1)=N2` [Example 367, 8-Chloro-4-[3-(2-hydroxymethyl-pyridin-4-yl)-phenyl]-7-(isopropyl-methyl-amino)-1,3-dihydro-benzo[b][1,4]diazepin-2-one] returned a melting point of 143 °C.
Compound `CC(C)CN(C)c1cc2c(cc1Cl)NC(=O)CC(c1cccc(-c3ccnc(CO)c3)c1)=N2` [Example 368, 8-Chloro-4-[3-(2-hydroxymethyl-pyridin-4-yl)-phenyl]-7-(isobutyl-methyl-amino)-1,3-dihydro-benzo[b][1,4]diazepin-2-one] yielded a melting point of 161 °C.
Turning to `CCCN(C)c1cc2c(cc1C(F)(F)F)NC(=O)CC(c1cccc(-c3ccnc(CO)c3)c1)=N2` [Example 369, 4-[3-(2-Hydroxymethyl-pyridin-4-yl)-phenyl]-7-(methyl-propyl-amino)-8-trifluoromethyl-1,3-dihydro-benzo[b][1,4]diazepin-2-one], the melting point was 97 °C.
`CC(C)N(C)c1cc2c(cc1C(F)(F)F)NC(=O)CC(c1cccc(-c3ccnc(CO)c3)c1)=N2` [Example 370, 4-[3-(2-Hydroxymethyl-pyridin-4-yl)-phenyl]-7-(isopropyl-methyl-amino)-8-trifluoromethyl-1,3-dihydro-benzo[b][1,4]diazepin-2-one] had a melting point of 124 °C.
In the case of `CN(C)c1cc2c(cc1C(F)(F)F)NC(=O)CC(c1cccc(-c3ccnc(CO)c3)c1)=N2` [Example 371, 7-Dimethylamino-4-[3-(2-hydroxymethyl-pyridin-4-yl)-phenyl]-8-trifluoromethyl-1,3-dihydro-benzo[b][1,4]diazepin-2-one] it was 223 °C; in that of `Cc1cc2c(cc1Cl)NC(=O)CC(c1cccc(-c3ccnc(CNC4CC4)c3)c1)=N2` [Example 378, 8-Chloro-4-[3-(2-cyclopropylaminomethyl-pyridin-4-yl)-phenyl]-7-methyl-1,3-dihydro-benzo[b][1,4]diazepin-2-one], 171 °C.
`O=C1CC(c2cccc(-c3ccnc(CNC4CC4)c3)c2)=Nc2cc(OCC(F)(F)F)c(C(F)(F)F)cc2N1` [Example 379, 4-[3-(2-Cyclopropylaminomethyl-pyridin-4-yl)-phenyl]-7-(2,2,2-trifluoro-ethoxy)-8-trifluoromethyl-1,3-dihydro-benzo[b][1,4]diazepin-2-one] returned a melting point of 150 °C.
Compound `O=C1CC(c2cccc(-c3ccnc(CN4CCCC4)c3)c2)=Nc2cc(OCC(F)(F)F)c(C(F)(F)F)cc2N1` [Example 380, 4-[3-(2-Pyrrolidin-1-ylmethyl-pyridin-4-yl)-phenyl]-7-(2,2,2-trifluoro-ethoxy)-8-trifluoromethyl-1,3-dihydro-benzo[b][1,4]diazepin-2-one] gave a melting point of 182 °C.
`O=C1CC(c2cccc(-c3ccnc(CN4CCC4)c3)c2)=Nc2cc(OCC(F)(F)F)c(C(F)(F)F)cc2N1` [Example 381, 4-[3-(2-Azetidin-1-ylmethyl-pyridin-4-yl)-phenyl]-7-(2,2,2-trifluoro-ethoxy)-8-trifluoromethyl-1,3-dihydro-benzo[b][1,4]diazepin-2-one] showed a melting point of 190 °C.
For `CCCN(C)Cc1cc(-c2cccc(C3=Nc4cc(OCC(F)(F)F)c(C(F)(F)F)cc4NC(=O)C3)c2)ccn1` [Example 382, 4-(3-{2-[(Methyl-propyl-amino)-methyl]-pyridin-4-yl}-phenyl)-7-(2,2,2-trifluoro-ethoxy)-8-trifluoromethyl-1,3-dihydro-benzo[b][1,4]diazepin-2-one], the melting point came out at 155 °C.
Compound `Cc1cc(-c2cccc(C3=Nc4cc(N5CCOCC5)c(C(F)(F)F)cc4NC(=O)C3)c2)cc(C)n1` [Example 384, 4-[3-(2,6-Dimethyl-pyridin-4-yl)-phenyl]-7-morpholin-4-yl-8-trifluoromethyl-1,3-dihydro-benzo[b][1,4]diazepin-2-one] returned a melting point of 251 to 252 °C.
For `CCOc1cc2c(cc1C(F)(F)F)NC(=O)CC(c1cccc(-c3ccnc(N4CCOCC4)c3)c1)=N2` [Example 385, 7-Ethoxy-4-[3-(2-morpholin-4-yl-pyridin-4-yl)-phenyl]-8-trifluoromethyl-1,3-dihydro-benzo[b][1,4]diazepin-2-one] the value was 199 to 200 °C; for `O=C1CC(c2cccc(-c3ccnc(N4CCOCC4)c3)c2)=Nc2cc(OCC(F)(F)F)c(C(F)(F)F)cc2N1` [Example 386, 4-[3-(2-Morpholin-4-yl-pyridin-4-yl)-phenyl]-7-(2,2,2-trifluoro-ethoxy)-8-trifluoromethyl-1,3-dihydro-benzo[b][1,4]diazepin-2-one], 189 to 190 °C; for `O=C1CC(c2cccc(-c3ccnc(N4CCCC4)c3)c2)=Nc2ccc(C(F)(F)F)cc2N1` [Example 388, 4-[3-(2-Pyrrolidin-1-yl-pyridin-4-yl)-phenyl]-8-trifluoromethyl-1,3-dihydro-benzo[b][1,4]diazepin-2-one], 224 °C.
For `Cc1cc2c(cc1C(F)(F)F)NC(=O)CC(c1cccc(-c3ccnc(N4CCCC4)c3)c1)=N2` [Example 389, 7-Methyl-4-[3-(2-pyrrolidin-1-yl-pyridin-4-yl)-phenyl]-8-trifluoromethyl-1,3-dihydro-benzo[b][1,4]diazepin-2-one] the value was 190 °C; for `CCOc1cc2c(cc1C(F)(F)F)NC(=O)CC(c1cccc(-c3ccnc(N4CCCC4)c3)c1)=N2` [Example 390, 7-Ethoxy-4-[3-(2-pyrrolidin-1-yl-pyridin-4-yl)-phenyl]-8-trifluoromethyl-1,3-dihydro-benzo[b][1,4]diazepin-2-one], 215 °C.
In the case of `CCOc1cc2c(cc1C(F)(F)F)NC(=O)CC(c1ccnc(-c3cccnc3)c1)=N2` [Example 393, 4-[2,3′]Bipyridinyl-4-yl-7-ethoxy-8-trifluoromethyl-1,3-dihydro-benzo[b][1,4]diazepin-2-one], the melting point came out at 249 °C.
In the case of `O=C1CC(c2ccnc(-c3cccnc3)c2)=Nc2cc(OCC(F)(F)F)c(C(F)(F)F)cc2N1` [Example 394, 4-[2,3′]Bipyridinyl-4-yl-7-(2,2,2-trifluoro-ethoxy)-8-trifluoromethyl-1,3-dihydro-benzo[b][1,4]diazepin-2-one] it was 197 °C; in that of `CC(C)CN(C)Cc1cc(-c2cccc(C3=Nc4cc(N(C)CC(C)C)c(C(F)(F)F)cc4NC(=O)C3)c2)ccn1` [Example 395, 7-(Isobutyl-methyl-amino)-4-(3-{2-[(isobutyl-methyl-amino)-methyl]-pyridin-4-yl}-phenyl)-8-trifluoromethyl-1,3-dihydro-benzo[b][1,4]diazepin-2-one], 190 °C.
In the case of `Cc1cc2c(cc1Cl)NC(=O)CC(c1cccc(-c3ccnc(CN(C)CC(C)C)c3)c1)=N2` [Example 396, 8-Chloro-4-(3-{2-[(isobutyl-methyl-amino)-methyl]-pyridin-4-yl}-phenyl)-7-methyl-1,3-dihydro-benzo[b][1,4]diazepin-2-one] it was 151 °C.
For `CC(C)CN(C)Cc1cc(-c2cccc(C3=Nc4cc(OCC(F)(F)F)c(C(F)(F)F)cc4NC(=O)C3)c2)ccn1` [Example 397, 4-(3-{2-[(Isobutyl-methyl-amino)-methyl]-pyridin-4-yl}-phenyl)-7-(2,2,2-trifluoro-ethoxy)-8-trifluoromethyl-1,3-dihydro-benzo[b][1,4]diazepin-2-one] the value was 166 °C; for `COCc1cc(-c2cccc(C3=Nc4cc(N(C)CC(C)C)c(C(F)(F)F)cc4NC(=O)C3)c2)ccn1` [Example 398, 7-(Isobutyl-methyl-amino)-4-[3-(2-methoxymethyl-pyridin-4-yl)-phenyl]-8-trifluoromethyl-1,3-dihydro-benzo[b][1,4]diazepin-2-one], 141 °C.
`COCc1cc(-c2cccc(C3=Nc4cc(C)c(Cl)cc4NC(=O)C3)c2)ccn1` [Example 399, 8-Chloro-4-[3-(2-methoxymethyl-pyridin-4-yl)-phenyl]-7-methyl-1,3-dihydro-benzo[b][1,4]diazepin-2-one] showed a melting point of 216 °C.
With `COCc1cc(-c2cccc(C3=Nc4cc(OCC(F)(F)F)c(C(F)(F)F)cc4NC(=O)C3)c2)ccn1` [Example 400, 4-[3-(2-Methoxymethyl-pyridin-4-yl)-phenyl]-7-(2,2,2-trifluoro-ethoxy)-8-trifluoromethyl-1,3-dihydro-benzo[b][1,4]diazepin-2-one], the melting point was found to be 225 °C.
In the case of `Cc1cc(-c2cccc(C3=Nc4cc(C)c(Cl)cc4NC(=O)C3)c2)cc(CO)n1` [Example 401, 8-Chloro-4-[3-(2-hydroxymethyl-6-methyl-pyridin-4-yl)-phenyl]-7-methyl-1,3-dihydro-benzo[b][1,4]diazepin-2-one] it was 202 °C; in that of `Cc1cc(-c2cccc(C3=Nc4cc(C)c(C(F)(F)F)cc4NC(=O)C3)c2)cc(CO)n1` [Example 402, 4-[3-(2-Hydroxymethyl-6-methyl-pyridin-4-yl)-phenyl]-7-methyl-8-trifluoromethyl-1,3-dihydro-benzo[b][1,4]diazepin-2-one], 200 °C.
For `Cc1cc(-c2cccc(C3=Nc4cc(Cl)c(C(F)(F)F)cc4NC(=O)C3)c2)cc(CO)n1` [Example 403, 7-Chloro-4-[3-(2-hydroxymethyl-6-methyl-pyridin-4-yl)-phenyl]-8-trifluoromethyl-1,3-dihydro-benzo[b][1,4]diazepin-2-one], the melting point is 163 °C.
`Cc1cc(-c2cccc(C3=Nc4cc(Cl)c(Cl)cc4NC(=O)C3)c2)cc(CO)n1` [Example 404, 7,8-Dichloro-4-[3-(2-hydroxymethyl-6-methyl-pyridin-4-yl)-phenyl]-1,3-dihydro-benzo[b][1,4]diazepin-2-one] came in with a melting point of 234 °C.
For the compound `Cc1cc(-c2cccc(C3=Nc4cc(OCC(F)(F)F)c(C(F)(F)F)cc4NC(=O)C3)c2)cc(CO)n1` [Example 405, 4-[3-(2-Hydroxymethyl-6-methyl-pyridin-4-yl)-phenyl]-7-(2,2,2-trifluoro-ethoxy)-8-trifluoromethyl-1,3-dihydro-benzo[b][1,4]diazepin-2-one], the melting point amounted to 227 °C.

Usually melting point stands for the temperature of the solid-liquid transition.
